Assay results as given in US20260125375A1 (Pfizer Inc., priority 2022, published 2026).

Experiments:
[1] = biological target: T1, WT CBL-B (36-427) (Homo sapiens, UniProt Q13191); assay: Surface Plasmon Resonance (SPR) assay, binding affinity and kinetics, CBL-B; conditions: SPR at 10° C., biotinylated WT CBL-B (36-427) on streptavidin chip; geometric mean; read-out: CBL-B SPR Kd (nM) GMean
T1 construct: N-terminal biotinylated WT CBL-B (36-427) and C-CBL (46-435) were captured on a streptavidin (SA) coated sensor chip
Summary of the method: (§1)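 SPR kinetics at 10° C, run either single-cycle (0.001–1 μM, 3-fold, 6 points, 120 s on, >5400 s off) or multi-cycle (10 points, 2-fold, top 10 or 100 μM, 90 s on). Proteins were N-biotinylated CBL-B (36-427) and C-CBL (46-435) on SA surfaces, in pH 7.2 HEPES, 2% DMSO.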

[2] = biological target: T2, C-CBL (46-435) (Homo sapiens, UniProt P22681); assay: Surface Plasmon Resonance (SPR) assay, binding affinity and kinetics, C-CBL; conditions: SPR at 10° C., biotinylated C-CBL (46-435) on streptavidin chip; geometric mean; read-out: C-CBL SPR Kd (nM) GMean
T2 construct: N-terminal biotinylated WT CBL-B (36-427) and C-CBL (46-435) were captured on a streptavidin (SA) coated sensor chip
T2 sequence (P22681 46-435): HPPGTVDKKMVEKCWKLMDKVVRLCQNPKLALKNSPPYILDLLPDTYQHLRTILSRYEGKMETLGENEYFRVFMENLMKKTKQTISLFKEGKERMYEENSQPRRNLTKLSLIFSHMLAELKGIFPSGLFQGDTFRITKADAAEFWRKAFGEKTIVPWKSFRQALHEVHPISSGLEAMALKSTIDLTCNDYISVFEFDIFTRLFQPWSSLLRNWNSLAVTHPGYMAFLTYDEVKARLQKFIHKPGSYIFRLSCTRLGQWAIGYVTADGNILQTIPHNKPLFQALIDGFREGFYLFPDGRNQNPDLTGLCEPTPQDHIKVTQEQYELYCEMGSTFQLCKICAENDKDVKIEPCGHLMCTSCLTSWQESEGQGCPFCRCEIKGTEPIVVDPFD
Summary of the method: as §1

[3] = biological target: T3, CBL-B (residues 36-427) (Homo sapiens, UniProt Q13191); assay: Ligand Displacement Assay (LDA), HTRF competitive binding against BODIPY-labeled fluorescent tracer, CBL-B; conditions: geometric mean of the number of tests, read-out: CBL-B Ki (nM) GMean
T3 construct: Purified CBL-B (residues 36-427) and C-CBL (residues 46-435) proteins from baculovirus-infected insect cells; made in house; host or cells: baculovirus-infected insect cells
Summary of the method: (§2)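 Ki values, given as geometric means of repeated tests, come from TR-FRET displacement of a BODIPY-labelled tracer from terbium-streptavidin-bound, AviTag-biotinylated protein made in baculovirus-infected insect cells. Compounds ran as three-fold dilutions in duplicate, […], 2% DMSO.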

[4] = biological target: T4, C-CBL (residues 46-435) (Homo sapiens, UniProt P22681); assay: Ligand Displacement Assay (LDA), HTRF competitive binding against BODIPY-labeled fluorescent tracer, C-CBL; conditions: geometric mean of the number of tests, read-out: C-CBL Ki (nM) GMean
T4 construct: Purified CBL-B (residues 36-427) and C-CBL (residues 46-435) proteins from baculovirus-infected insect cells; made in house; host or cells: baculovirus-infected insect cells
T4 sequence (P22681 46-435): T2 sequence (P22681 46-435)
Summary of the method: as §2

Row | SMILES | Kd [1] [nM] | Kd [2] [nM] | Ki [3] [nM] | Ki [4] [nM]
1 | Cn1cnnc1CC1(c2cccc(-c3n[nH]c4c(OCCN)nc(C(F)(F)F)cc34)c2)COC1 [Example J3, 2-{[3-(3-{3-[(4-methyl-4H-1,2,4-triazol-3-yl)methyl]oxetan-3-yl}phenyl)-5-(trifluoromethyl)-1H-pyrazolo[3,4-c]pyridin-7-yl]oxy}ethan-1-amine] | 3.2 | 53.6 | 16.7 | 76.3
2 | Cn1cnnc1[C@@H](c1cccc(-c2n[nH]c3c(CN4CCC(F)(F)C4)nc(C(F)(F)F)cc23)c1)C1CCC1 [Example C114, 3-{3-[(R)-cyclobutyl(4-methyl-4H-1,2,4-triazol-3-yl)methyl]phenyl}-7-[(3,3-difluoropyrrolidin-1-yl)methyl]-5-(trifluoromethyl)-1H-pyrazolo[3,4-c]pyridine] | 10.8 | 278 | 87.9 | 1070
3 | Cn1cnnc1[C@@H](c1cccc(-c2n[nH]c3c(CN4C[C@@H](F)[C@H](F)C4)nc(C(F)(F)F)cc23)c1)C1CCC1 [Example C111, 3-{3-[(R)-cyclobutyl(4-methyl-4H-1,2,4-triazol-3-yl)methyl]phenyl}-7-{[(3R,4R)-3,4-difluoropyrrolidin-1-yl]methyl}-5-(trifluoromethyl)-1H-pyrazolo[3,4-c]pyridine] | 3.3 | 282 | 26.9 | 313
4 | Cn1cnnc1[C@@H](c1cccc(-c2n[nH]c3c(CN4CC(F)C4)nc(C(F)(F)F)cc23)c1)C1CCC1 [Example C106, 3-{3-[(R)-cyclobutyl(4-methyl-4H-1,2,4-triazol-3-yl)methyl]phenyl}-7-[(3-fluoroazetidin-1-yl)methyl]-5-(trifluoromethyl)-1H-pyrazolo[3,4-c]pyridine] | 5.9 | 265 | 41.6 | 475
5 | CN1CC[C@@H](Oc2nc(C(F)(F)F)cc3c(-c4cccc([C@H](c5nncn5C)C5CCC5)c4)n[nH]c23)C1 [Example J4, 3-{3-[(R)-cyclobutyl(4-methyl-4H-1,2,4-triazol-3-yl)methyl]phenyl}-7-{[(3R)-1-methylpyrrolidin-3-yl]oxy}-5-(trifluoromethyl)-1H-pyrazolo[3,4-c]pyridine] | 3.7 | 145 | 9.2 | 83.6
6 | CNCc1nc(C(F)(F)F)cc2c(-c3cccc(C4(Cc5nncn5C)COC4)c3)n[nH]c12 [Example C52, N-methyl-1-[3-(3-{3-[(4-methyl-4H-1,2,4-triazol-3-yl)methyl]oxetan-3-yl}phenyl)-5-(trifluoromethyl)-1H-pyrazolo[3,4-c]pyridin-7-yl]methanamine] | 9.3 | 124 | 32.9 | 134
7 | C[C@H]1CN(Cc2nc(C(F)(F)F)cc3c(-c4cccc(C5(Cc6nncn6C)COC5)c4)n[nH]c23)CCO1 [Example C58, 7-{[(2S)-2-methylmorpholin-4-yl]methyl}-3-(3-{3-[(4-methyl-4H-1,2,4-triazol-3-yl)methyl]oxetan-3-yl}phenyl)-5-(trifluoromethyl)-1H-pyrazolo[3,4-c]pyridine] | 5.8 | 54.1 | 14.8 | 82.4
8 | Cn1cnnc1CC1(c2cccc(-c3n[nH]c4c(CN5CCCC5)nc(C(F)(F)F)cc34)c2)COC1 [Example C62, 3-(3-{3-[(4-methyl-4H-1,2,4-triazol-3-yl)methyl]oxetan-3-yl}phenyl)-7-[(pyrrolidin-1-yl)methyl]-5-(trifluoromethyl)-1H-pyrazolo[3,4-c]pyridine] | 8.6 | 111 | 34.3 | 162
9 | Cn1cnnc1[C@@H](c1cccc(-c2n[nH]c3c(CN[C@H]4CCC[C@H]4O)nc(C(F)(F)F)cc23)c1)C1CCC1 [Example C122, (1R,2S)-2-({[3-{3-[(R)-cyclobutyl(4-methyl-4H-1,2,4-triazol-3-yl)methyl]phenyl}-5-(trifluoromethyl)-1H-pyrazolo[3,4-c]pyridin-7-yl]methyl}amino)cyclopentan-1-ol] | 5.5 | 146 | 29.2 | 294
